US7718781B2, “Hydroxypyridonate and hydroxypyrimidinone chelating agents” (The Regents of the University of California, priority 2001, dated 2010)

Experiment: Ligand protonation constants (potentiometric titration)
Assay type: physicochemical
Experimental: The protonation constants for chelates of the invention are readily determined by potentiometric titrations. These constants are defined by eq 2:
As previously reported, (Turowski et al., Inorg. Chem., 27:474 (1988)) potentiometric titrations were performed using an automated apparatus consisting of a Accumet pH meter (models 925, 825MP or 15), a pH electrode (Orion Ross semi-micro combination, Cole Parmer semi-micro combination or Corning high performance combination electrodes), an autoburet (Metrohm 665 Dosimat or 702 SM Titrino) fitted with a 5 mL piston exchange unit and a jacketed Ar swept titration cell maintained at 25.0° C. by a Lauda K-2/R or Neslab RTE-111 constant temperature circulating bath. The electronic systems were integrated for automated collection with an IBM PC clone.
In this study, ligand and metal complex solutions were titrated from low to high pH and back again if possible. Titrations for the Zn/HOPY systems were not reversible, presumably due to the formation of mixed ML hydroxide complexes. […] Formation constants calculated from the potentiometric titration data were determined with the aid of a FORTRAN non-linear least-squares refinement program (BETA 90). […] Although this is a low concentration for potentiometric titrations, the buffer regions corresponding to the protonation steps are around neutral pH, and so could still be determined.

**Q.** Which pKa does the source give for `Cc1nc(C(=O)NCCN(CCNC(=O)c2nc(C)n(C)c(=O)c2O)CCNC(=O)c2nc(C)n(C)c(=O)c2O)c(O)c(=O)n1C` [TREN-HOPY, Tris[(2,3-Dimethyl-5-hydroxy-6-carboxamido-4-pyrimidinone)ethyl]amine] here?
**A.** The pKa was 6.37.
